Reference: PMC8765460 (Antimicrobial Agents and Chemotherapy, 2022)
Read-outs that look alike come from different tables or passages of the source.

Tests used:
[1] = molecular target: R263K integrase-DNA complex (Human immunodeficiency virus type 1 group M subtype B, UniProt P04585, R1410K); assay: Dissociation of 3H-labeled INSTIs from integrase-DNA complexes (scintillation proximity assay); format: binding, HIV-1; conditions: for t1/2 (dissociative half-life): ln 2 divided by mean koff
Protocol: (§1) Dissociation of INSTIs from integrase-DNA complexes was evaluated as previously described ([35]). Briefly, biotinylated viral long-terminal-repeat DNA duplexes were prepared and attached to streptavidin-coated scintillation proximity assay imaging beads. Wild-type and R263K, G118R, or G118R/E138K mutant integrase-DNA-bead complexes were formed, and unbound protein was removed. […] Relative binding (RB) was calculated as the ratio of dissociation signal to high signal and fit with the equation RB = EP + ΔRB(e^−^k^off^t), where EP is the RB endpoint, koff is the dissociation rate constant, ΔRB is the change in RB, and t is time, using the SigmaPlot program (Systat Software, San Jose, CA).

[2] = molecular target: G118R/E138K integrase-DNA complex (Human immunodeficiency virus type 1 group M subtype B, UniProt P04585, E1285K/G1265R); assay: as above; format: binding, HIV-1; conditions: for t1/2 (dissociative half-life): G118R, E138K integrase-DNA complex, ln 2 divided by mean koff
Protocol: as §1

[3] = molecular target: T1, wild-type integrase-DNA complex (Human immunodeficiency virus type 1 group M subtype B, UniProt P04585); assay: as above; format: binding, HIV-1; conditions: for t1/2 (dissociative half-life): Wild-type integrase-DNA complex, ln 2 divided by mean koff; for koff: read-out: koff (mean ± SD)
Protocol: as §1

[4] = molecular target: G118R integrase-DNA complex (Human immunodeficiency virus type 1 group M subtype B, UniProt P04585, G1265R); assay: as above; format: binding, HIV-1; conditions: for t1/2 (dissociative half-life): ln 2 divided by mean koff
Protocol: as §1

[5] = system: HIV-1 variant clones (participant-derived integrase); assay: Clonal integrase phenotyping of variant clones (Monogram Biosciences); format: cell-based; conditions: fold change in IC50 relative to wild-type
[6] = molecular target: T1, wild-type integrase-DNA complex; conditions: cited from earlier work
[7] = system: recombinant viruses containing participant-derived integrase sequences; conditions: for Fold change in dolutegravir sensitivity: fold change in IC50 relative to wild-type, clinical cutoff 4.0
Protocol: HIV-1 genotyping and phenotyping of plasma samples at baseline and the first sample of the 2 required to meet CVW criteria were conducted by Monogram Biosciences (South San Francisco, CA) using PhenoSense Integrase, PhenoSense GT, and GeneSeq Integrase assays, with the PhenoSense GT Plus Integrase assay used as a backup alternative in case of initial resistance assay failure.

HIV-1 [8] = conditions: 12 participants switched at week 48
From the text: Confirmed virologic withdrawal criteria were defined as 2 consecutive measurements with a decrease in plasma HIV-1 RNA of <1.0 log10 copies/mL by week 16 (unless HIV-1 RNA levels were <400 copies/mL), plasma HIV-1 RNA levels of ≥400 copies/mL at or after week 24, or plasma HIV-1 RNA levels of ≥400 copies/mL after confirmed HIV-1 RNA levels of <400 copies/mL. Participants who met CVW criteria were withdrawn from the study. For this ad hoc assessment carried out after the week 48 analysis, participants with available data through 12 September 2019 were included.

HIV-1 [9] = system: HIV-1; set-up: method as in PMID 30732940; conditions: cited from earlier work
[10] = patient 1, Baseline, R263K clones (3 clones)
[11] = patient 1, Baseline, Wild-type clones (5 clones)
[12] = patient 1, CVW (wk 36), Wild-type clones (8 clones)
[13] = patient 2, Baseline, T66I clone (1 clone)
[14] = patient 2, Baseline, Wild-type clones (7 clones)
[15] = patient 2, CVW (wk 36), G118R clones (8 clones)
[16] = patient 3, Baseline, Wild-type clones (16 clones)
[17] = patient 3, CVW (wk 48), G118R, E138K, R263K clones (13 clones)
[18] = patient 3, CVW (wk 48), H51Y, G118R clones (3 clones)

SMILES: Cc1nnc(C(=O)NC(C)(C)c2nc(C(=O)NCc3ccc(F)cc3)c(O)c(=O)n2C)o1 [Raltegravir, raltegravir]
- fold increase in dissociation rate constant (koff) relative to the wild type [1]: no change in koff
- t1/2 (dissociative half-life) [1]: 9.6 h
- t1/2 (dissociative half-life) [2]: 3.2 h
- t1/2 (dissociative half-life) [3]: 9.2 h
- koff [3]: 2.1e-05 ± 2e-06 s⁻¹
- fold increase in dissociation rate constant (koff) relative to the wild type [4]: 3.4 fold
- t1/2 (dissociative half-life) [4]: 2.7 h
- Fold change in median drug sensitivity [5, 10]: 1.09
- Fold change in median drug sensitivity [5, 11]: 0.88
- Fold change in median drug sensitivity [5, 12]: 0.89
- Fold change in median drug sensitivity [5, 13]: 0.58
- Fold change in median drug sensitivity [5, 14]: 1.18
- Fold change in median drug sensitivity [5, 15]: 24
- Fold change in median drug sensitivity [5, 16]: 1.03
- Fold change in median drug sensitivity [5, 17]: 2.03
- Fold change in median drug sensitivity [5, 18]: 4.43
- t1/2 (dissociative half-life), previously measured [6]: 8.8 h

SMILES: C[C@@H]1CCO[C@H]2Cn3cc(C(=O)NCc4ccc(F)cc4F)c(=O)c(O)c3C(=O)N12 [Dolutegravir, dolutegravir]
- change in in vitro dolutegravir resistance versus baseline levels ([7]; 6 participants with treatment-emergent INSTI resistance-associated substitutions): > 10 fold
- median fold change in dolutegravir susceptibility at CVW ([7]; participants with treatment-emergent integrase substitutions (6 participants)): 25
- Fold change in dolutegravir sensitivity ([7]; patient 1, Baseline, subtype C, INSTI mutation R263R/K): 1.03
- Fold change in dolutegravir sensitivity ([7]; patient 1, Wk 36 (CVW), no INSTI mutation): 0.79
- Fold change in dolutegravir sensitivity ([7]; patient 2, Baseline, subtype B): 1.02
- Fold change in dolutegravir sensitivity ([7]; patient 2, Wk 36 (CVW), G118R): 30
- Fold change in dolutegravir sensitivity ([7]; patient 3, Baseline, subtype C): 1.26
- Fold change in dolutegravir sensitivity ([7]; patient 3, Wk 48 (CVW), H51H/Y, G118R, E138E/K, 263R/K): 15
- Fold change in dolutegravir sensitivity ([7]; patient 4, Baseline, subtype A1, L74I): 0.93
- Fold change in dolutegravir sensitivity ([7]; patient 4, Wk 48 (CVW), L74I, G118G/R, E138E/K, 148Q/R, R263R/K): 20
- Fold change in dolutegravir sensitivity ([7]; patient 5, Baseline, subtype Complex): 0.59
- Fold change in dolutegravir sensitivity ([7]; patient 5, Wk 60 (CVW), E138K, G140S, Q148H, N155H): >106.45
- Fold change in dolutegravir sensitivity ([7]; patient 6, Baseline, subtype C, L74L/I): 0.6
- Fold change in dolutegravir sensitivity ([7]; patient 6, Wk 72 (CVW), T66T/I, L74I, G118R, E138E/K): 22
- Fold change in dolutegravir sensitivity ([7]; patient 7, Baseline, subtype C): 0.98
- Fold change in dolutegravir sensitivity ([7]; patient 7, Wk 168 (CVW), G118R): 28
- INSTI resistance in participants who switched from ritonavir-boosted lopinavir to the dolutegravir regimen (HIV-1 [8]): None of the 12 participants
- fold increase in dissociation rate constant (koff) relative to the wild type [1]: 1.8 fold
- t1/2 (dissociative half-life) [1]: 52 h
- t1/2 (dissociative half-life) ([1]; listed as dolutegravir): ~50 h
- fold increase in dissociation rate constant (koff) relative to the wild type ([2]; G118R plus E138K integrase-DNA complex): 9.0 fold
- t1/2 (dissociative half-life) [2]: 10.1 h
- t1/2 (dissociative half-life) [3]: 92 h
- koff [3]: 2.1e-06 ± 1e-07 s⁻¹
- fold increase in dissociation rate constant (koff) relative to the wild type [4]: 8.6 fold
- t1/2 (dissociative half-life) [4]: 10.7 h
- t1/2 (dissociative half-life) ([4]; listed as dolutegravir): ~10 h
- participants meeting CVW who developed treatment-emergent genotypic and phenotypic INSTI resistance (HIV-1 [9]; through the week 48 analysis): 2 of 11
- virologic suppression (HIV-1 RNA levels of <50 copies/mL) versus comparator (HIV-1 [9]; week 48, both in combination with 2 NRTIs): superiority to ritonavir-boosted lopinavir
- Fold change in median drug sensitivity [5, 10]: 1.81
- Fold change in median drug sensitivity [5, 11]: 0.87
- Fold change in median drug sensitivity [5, 12]: 0.77
- Fold change in median drug sensitivity [5, 13]: 0.33
- Fold change in median drug sensitivity [5, 14]: 0.93
- Fold change in median drug sensitivity [5, 15]: 30.5
- Fold change in median drug sensitivity [5, 16]: 1.08
- Fold change in median drug sensitivity [5, 17]: 13
- Fold change in median drug sensitivity [5, 18]: 11
